Results taken from US10639284B2, “Immunomodulator compounds” (CHEMOCENTRYX, INC., priority 2016, dated 2020).

molecular target: human PD-L1 / Human PD-1 (Homo sapiens (Human), UniProt Q9NZQ7); assay: Enzyme-Linked Immunosorbent Assay (ELISA), PD-1/PD-L1 binding; settings: not given
Method: Plates were coated with 1 μg/mL of human PD-L1 (obtained from R&D) in PBS overnight at 4° C. The wells were then blocked with PBS containing 2% BSA in PBS (W/V) with 0.05% TWEEN-20 for 1 hour at 37° C. The plates were washed 3 times with PBS/0.05% TWEEN-20 and the samples were diluted to 1:5 in dilution medium in the ELISA plates. Human PD-1 and biotin 0.3 μg/mL (ACRO Biosystems) were added and incubated for 1 hour at 37° C. then washed 3 times with PBS/0.05% TWEEN-20. A second block was added with PBS containing 2% BSA in PBS (W/V)/0.05% TWEEN-20 for 10 min at 37° C. and was washed 3 times with PBS/0.05% TWEEN-20. Streptavidin-HRP was added for 1 hour at 37° C. then washed 3 times with PBS/0.05% TWEEN-20. TMB substrate was added and reacted for 20 min at 37° C. A stop solution (2 N aqueous H2SO4) was added. The absorbance was read at 450 nm using a micro-plate spectrophotometer.
Compounds in Table 2 and Table 3 were prepared by methods as described in the Examples, and evaluated according to the assay below.

Sequence of human PD-L1 / Human PD-1 (Q9NZQ7 19-239): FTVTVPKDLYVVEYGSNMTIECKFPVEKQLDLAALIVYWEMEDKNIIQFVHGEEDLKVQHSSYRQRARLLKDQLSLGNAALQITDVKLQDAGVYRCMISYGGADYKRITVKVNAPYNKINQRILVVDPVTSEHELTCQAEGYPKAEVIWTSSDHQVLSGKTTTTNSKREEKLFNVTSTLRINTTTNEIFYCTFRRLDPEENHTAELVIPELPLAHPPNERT

For N#Cc1cncc(COc2cc(O[C@H]3CCc4c(-c5ccccc5F)cccc43)c(Cl)cc2CN2CCC(F)CC2)c1 [Example 2.094], the IC50 was 100 to 500 nM.

same assay, conditions: Table 2; plate-coated human PD-L1, biotinylated human PD-1; read-out: ELISA IC50

C[C@H](O)[C@@H](NCc1cc(Cl)c(O[C@H]2CCc3c(-c4ccccc4F)cccc32)cc1OCc1cncc(C#N)c1)C(=O)O [Example 2.122] and C[C@@H](O)[C@H](NCc1cc(Cl)c(O[C@@H]2CCc3c(-c4ccccc4F)cccc32)cc1OCc1cncc(C#N)c1)C(=O)O [Example 2.138] cannot be ordered by IC50: less than 100 nM for the first, less than 100 nM for the second.

First: C[C@H](NCc1cc(Cl)c(O[C@H]2CCc3c(-c4ccc5c(c4Cl)OCCO5)cccc32)cc1OCc1cncc(C#N)c1)C(=O)O [Example 2.163]
Second: COc1ccc(Cl)c(-c2cccc3c2CC[C@@H]3Oc2cc(OCc3cncc(C#N)c3)c(CN[C@@H](CO)C(=O)O)cc2Cl)c1 [Example 2.065]
The IC50 of the first is higher: 100 to 500 nM for the first, less than 100 nM for the second.

N#Cc1cncc(-c2cc(O[C@H]3CCc4c(-c5ccccc5F)cccc43)c(Cl)cc2CN2CCC(O)CC2)c1 [Example 2.112] and N#Cc1cccc(COc2cc(O[C@H]3CCc4c(-c5ccccc5F)cccc43)c(Cl)cc2CN2CCC(O)CC2)c1 [Example 2.110] fall in the same range of IC50: 500 to 20000 nM for the first, 500 to 20000 nM for the second.

COc1cccc(-c2cccc3c2CC[C@@H]3Oc2cc(OCc3cncc(C#N)c3)c(CN3C[C@H](O)C[C@@H]3C(=O)O)cc2Cl)c1F [Example 2.073] and COc1cccc(-c2cccc3c2CC[C@@H]3Oc2cc(OCc3cncc(C#N)c3)c(CN[C@H](CO)C(=O)O)cc2Cl)c1F [Example 2.107] cannot be ordered by IC50: less than 100 nM for the first, less than 100 nM for the second.

CCOc1cc(O[C@H]2CCc3c(-c4ccccc4F)cccc32)c(Cl)cc1CN[C@@H](C)C(=O)O [Example 2.154] and CCOc1cc(O[C@H]2CCc3c(-c4ccccc4F)cccc32)c(Cl)cc1CNC(C)(CO)C(=O)O (some centres unmarked) [Example 2.177] fall in the same range of IC50: 100 to 500 nM for the first, 100 to 500 nM for the second.

COc1cccc(F)c1-c1cccc2c1CC[C@@H]2Oc1cc(OCc2cncc(C#N)c2)c(CN2CCC(O)CC2)cc1Cl [Example 2.108] and COc1cccc(-c2cccc3c2CCC3CCOc2cc(OCc3cncc(C#N)c3)c(CN3CCC(O)CC3)cc2Cl)c1F (centres unmarked) [Example 2.086] fall in the same range of IC50: 500 to 20000 nM for the first, 500 to 20000 nM for the second.

N#Cc1cncc(COc2cc(O[C@H]3CCc4c(-c5ccccc5)cccc43)c(Cl)cc2CN2CC(O)C2)c1 [Example 2.001] and N#Cc1cncc(COc2cc(OC3CCc4c(-c5ccccc5)cccc43)c(Cl)cc2CN2CC(O)C2)c1 (centres unmarked) [Example 1.007] fall in the same range of IC50: 100 to 500 nM for the first, 100 to 500 nM for the second.

N#Cc1cncc(COc2cc(O[C@@H]3CCc4c(-c5ccccc5F)cccc43)c(Cl)cc2CN[C@@H](CO)C(=O)O)c1 [Example 2.139] and N#Cc1cncc(COc2cc(O[C@H]3CCc4c(-c5ccccc5F)cccc43)c(Cl)cc2CN[C@@H](CO)C(=O)O)c1 [Example 2.004] cannot be ordered by IC50: less than 100 nM for the first, less than 100 nM for the second.

First: N#Cc1cccc(-c2cc(O[C@H]3CCc4c(-c5ccccc5F)cccc43)c(Cl)cc2CN[C@@H](CO)C(=O)O)c1 [Example 2.121]
Second: COC[C@H](NCc1cc(Cl)c(O[C@H]2CCc3c(-c4ccccc4F)cccc32)cc1OCc1cncc(C#N)c1)C(=O)O [Example 2.134]
The IC50 of the first is higher: 100 to 500 nM for the first, less than 100 nM for the second. The second is the more potent here.

Cc1cccc(-c2cccc3c2CC[C@@H]3Oc2cc(OCc3cncc(C#N)c3)c(CN[C@@H](CO)C(=O)O)cc2Cl)c1 [Example 2.012] and N#Cc1cncc(COc2cc(O[C@H]3CCc4c(-c5ccc(Cl)c(Cl)c5)cccc43)c(Cl)cc2CN[C@@H](CO)C(=O)O)c1 [Example 2.016] fall in the same range of IC50: 500 to 20000 nM for the first, 500 to 20000 nM for the second.

First: N#Cc1cncc(COc2cc(O[C@H]3CCc4c(-c5ccccc5F)cccc43)c(Cl)cc2CN2CCC(C(=O)O)C2)c1 (some centres unmarked) [Example 2.032]
Second: N#Cc1cncc(COc2cc(O[C@H]3CCc4c(-c5ccccc5F)cccc43)c(Cl)cc2CN2CC(F)C2)c1 [Example 2.120]
The IC50 of the first is lower: less than 100 nM for the first, 500 to 20000 nM for the second.

Compared with N#CCCCCOc1cc(O[C@H]2CCc3c(-c4ccccc4F)cccc32)c(Cl)cc1CN1CCC(O)CC1 [Example 2.090], CCOc1cc(O[C@H]2CCc3c(-c4ccccc4F)cccc32)c(Cl)cc1CN1CCC(O)CC1 [Example 2.061] is higher in IC50: 100 to 500 nM for the first, 500 to 20000 nM for the second.

Compared with CCOc1cc(O[C@H]2CCc3c(-c4ccc5c(c4F)OCCO5)cccc32)c(Cl)cc1CN[C@@H](CO)C(=O)O [Example 2.056], CC(C)c1ccccc1-c1cccc2c1CC[C@@H]2Oc1cc(OCc2cncc(C#N)c2)c(CN[C@@H](CO)C(=O)O)cc1Cl [Example 2.034] is higher in IC50: less than 100 nM for the first, 100 to 500 nM for the second.

N#Cc1cncc(COc2cc(O[C@H]3CCc4c(-c5ccccc5F)cccc43)c(Cl)cc2CNCP(=O)(O)O)c1 [Example 2.063] and N#Cc1cncc(COc2cc(O[C@H]3CCc4c(-c5ccccc5F)cccc43)c(Cl)cc2CNC2(C(=O)O)CC2)c1 [Example 2.144] cannot be ordered by IC50: less than 100 nM for the first, less than 100 nM for the second.

First: CC(C)OC(=O)[C@H](CO)NCc1cc(Cl)c(O[C@H]2CCc3c(-c4ccccc4F)cccc32)cc1OCc1cncc(C#N)c1 [Example 2.172]
Second: C[C@@H](O)[C@H](NC(=O)CNCc1cc(Cl)c(O[C@H]2CCc3c(-c4ccccc4F)cccc32)cc1OCc1cncc(C#N)c1)C(=O)O [Example 2.135]
The IC50 of the first is higher: 500 to 20000 nM for the first, 100 to 500 nM for the second. The second is the more potent here.

First: OC1CCN(Cc2cc(Cl)c(O[C@H]3CCc4c(-c5ccccc5F)cccc43)cc2OCc2cnc(N3CCC(O)CC3)nc2)CC1 [Example 2.109]
Second: COc1ncc(COc2cc(O[C@H]3CCc4c(-c5ccccc5F)cccc43)c(Cl)cc2CN2CCC(O)CC2)cn1 [Example 2.131]
The IC50 of the first is higher: 500 to 20000 nM for the first, 100 to 500 nM for the second.

Compared with COc1cccc(-c2ccc(F)c3c2CCC3Oc2cc(OCc3cncc(C#N)c3)c(CN[C@@H](CO)C(=O)O)cc2Cl)c1F (some centres unmarked) [Example 2.047], COc1cccc(-c2cccc3c2CC[C@@H]3Oc2cc(OCc3cncc(C#N)c3)c(CNCC(C)(C)O)cc2Cl)c1F [Example 2.142] is higher in IC50: less than 100 nM for the first, 100 to 500 nM for the second. The first is the more potent here.

same assay, conditions: Table 3; plate-coated human PD-L1, biotinylated human PD-1; read-out: ELISA IC50

First: N#Cc1cncc(COc2cc(O[C@H]3CCc4c(-c5ccccc5F)cccc43)c(Cl)cc2CN[C@@H](CNC(=N)N)C(=O)O)c1 [Example 3.096]
Second: N#Cc1cncc(COc2cc(O[C@H]3CCc4c(-c5ccccc5F)cccc43)c(Cl)cc2CN[C@H](CNC(=N)N)C(=O)O)c1 [Example 3.083]
The IC50 of the first is higher: 100 to 500 nM for the first, less than 100 nM for the second. The second is the more potent here.

First: CC(N[C@@H](CO)C(=O)O)c1cc(Cl)c(O[C@H]2CCc3c(-c4ccc(O)cc4)cccc32)cc1OCc1cncc(C#N)c1 (some centres unmarked) [Example 3.111]
Second: N#Cc1cncc(COc2cc(O[C@H]3CCc4c(-c5ccccc5O)cccc43)c(Cl)cc2CN[C@@H](CO)C(=O)O)c1 [Example 3.079]
The IC50 of the first is higher: 500 to 20000 nM for the first, 100 to 500 nM for the second.

CS(=O)(=O)c1cncc(COc2cc(O[C@H]3CCc4c(-c5ccc6c(c5F)OCCO6)cccc43)c(Cl)cc2CN[C@@H](CO)C(=O)O)c1 [Example 3.010] and N#Cc1cncc(COc2cc(O[C@H]3CCc4c(-c5ccc6c(c5F)OCCO6)cccc43)c(Cl)cc2CN[C@H](CO)C(=O)O)c1 [Example 3.054] cannot be ordered by IC50: less than 100 nM for the first, less than 100 nM for the second.

First: CC(C)[C@@H](NCc1cc(Cl)c(O[C@H]2CCc3c(-c4ccccc4F)cccc32)cc1OCc1cncc(C#N)c1)C(=O)O [Example 3.099]
Second: C[C@@H](O)[C@@H](CC(=O)O)NCc1cc(Cl)c(O[C@@H]2CCc3c(-c4ccccc4F)cccc32)cc1OCc1cncc(C#N)c1 [Example 3.064]
The IC50 of the first is lower: 100 to 500 nM for the first, 500 to 20000 nM for the second.

N#Cc1cncc(COc2cc(O[C@H]3CCc4c(-c5ccccc5F)cccc43)c(Cl)cc2CN[C@@H]2COC[C@H]2O)c1 [Example 3.039] and N#Cc1cncc(COc2cc(O[C@H]3CCc4c(-c5ccccc5F)cccc43)c(Cl)cc2CN[C@H]2CC[C@H](O)CC2)c1 [Example 3.068] cannot be ordered by IC50: less than 100 nM for the first, less than 100 nM for the second.

First: N#Cc1cncc(COc2cc(O[C@H]3CCc4c(-c5ccc6ccccc6c5)cccc43)c(Cl)cc2CN[C@@H](CO)C(=O)O)c1 [Example 3.125]
Second: O=C(O)[C@H](CO)NCc1cc(Cl)c(O[C@H]2CCc3c(-c4ccccc4F)cccc32)cc1OCc1cncc(Br)c1 [Example 3.100]
The IC50 of the first is higher: 500 to 20000 nM for the first, less than 100 nM for the second.

First: C[C@@](CO)(NCc1cc(Cl)c(O[C@H]2CCc3c(-c4ccc5c(c4F)OCCO5)cccc32)cc1OCc1cncc(C#N)c1)C(=O)O [Example 3.009]
Second: CC(C)OC(=O)[C@@H](NCc1cc(Cl)c(O[C@H]2CCc3c(-c4ccc5c(c4F)OCCO5)cccc32)cc1OCc1cncc(C#N)c1)[C@@H](C)O [Example 3.045]
The IC50 of the first is lower: less than 100 nM for the first, 500 to 20000 nM for the second. The first is the more potent here.

First: CS(=O)(=O)c1cc(COc2cc(O[C@H]3CCc4c(-c5ccccc5F)cccc43)c(Cl)cc2CN[C@@H](CO)C(=O)O)cc(S(C)(=O)=O)c1 [Example 3.001]
Second: NCCCC[C@H](NCc1cc(Cl)c(O[C@H]2CCc3c(-c4ccccc4F)cccc32)cc1OCc1cncc(C(=O)O)c1)C(=O)O [Example 3.023]
The IC50 of the first is lower: less than 100 nM for the first, 100 to 500 nM for the second. The first is the more potent here.

First: N#Cc1cncc(COc2cc(O[C@H]3CCc4c(-c5ccccc5F)cccc43)c(Cl)cc2CNCc2ncc(-c3ccccc3)[nH]2)c1 [Example 3.081]
Second: CC(Cc1ccccn1)NCc1cc(Cl)c(O[C@H]2CCc3c(-c4ccccc4F)cccc32)cc1OCc1cncc(C#N)c1 (some centres unmarked) [Example 3.052]
The IC50 of the first is higher: 500 to 20000 nM for the first, 100 to 500 nM for the second. The second is the more potent here.

Compared with O=C(O)[C@H](CO)NCc1cc(Cl)c(O[C@H]2CCc3c(-c4ccc5c(c4F)OCCO5)cccc32)cc1OCc1cc(Cl)cc(Cl)c1 [Example 3.014], N#Cc1cncc(COc2cc(O[C@H]3CCc4c(-c5cc6c(c(F)c5F)OCCO6)cccc43)c(Cl)cc2CN[C@@H](CO)C(=O)O)c1 [Example 3.011] is lower in IC50: 500 to 20000 nM for the first, less than 100 nM for the second. The second is the more potent here.

For C[C@@H](O)[C@H](NCc1cc(Cl)c(O[C@H]2CCc3c(-c4ccccc4F)cccc32)cc1OCc1cncc(C#N)c1)C(=O)OC(C)(C)C [Example 3.135], the IC50 was 500 to 20000 nM.
